Measurements published in publication PMC8401404 (Molecules, 2021).

Assays:
[1] = test system: poly dA-poly dT (DNA, polymer) A/T; assay: UV thermal melting at 260 nm; conditions: Na+ (sodium cacodylate, I = 0.05 M), pH 7.0, r = [compound]/[polynucleotide phosphate] = 0.3, error ±0.5, per base
[2] = test system: poly(dAdT)2 (DNA, polymer) AT; assay: UV thermal melting at 260 nm; conditions: Na+ (sodium cacodylate, I = 0.05 M), pH 7.0, r = [compound]/[polynucleotide phosphate] = 0.3, error ±0.5, per base
[3] = test system: S. aureus ATCC 29213; assay: Broth microdilution testing (CLSI); assay type: cell-based, Staphylococcus aureus; conditions: Staphylococcus aureus, ATCC29213, broth microdilution, 16–24h at 37 °C; read-out: MIC S. aureus ATCC 29213
Description: (§1) Broth microdilution testing was performed according to CLSI (Clinical Laboratory Standards Institute) guidelines. MIC (minimal inhibitory concentration) value was defined as the last tested concentration of compound at which there is no visible growth of bacteria. […] Clinical and Laboratory Standards Institute (CLSI) guidelines.

[4] = test system: S. cerevisiae ATCC 7752; assay: Broth microdilution testing (CLSI); assay type: cell-based, Saccharomyces cerevisiae; conditions: Saccharomyces cerevisiae, ATCC7752; broth microdilution, 16–24h at 37 °C; read-out: MIC S. cerevisiae ATCC 7752
Description: as §1

[5] = test system: A549; assay: BrdU proliferation assay, 3D hanging drop cell culture; assay type: cell-based, human; conditions: Homo sapiens, A549, 3D, BrdU, n = 2, read-out: Proliferation Assay IC50 ± SD
Description: (§2) MTS assay gives us information about the number of living cells, in this case, metabolically active cells, whereas the BrdU proliferation assay gives a measure of the cell population in active division phase. Both assays were performed in 2D and 3D assay formats. For the 2D cell assay format, we used classic two-dimensional in vitro assays and as a 3D assay we used a hanging drop proliferation cell assay as previously described. We explored the activity of compounds on three human lung cancer cell lines, A549, HCC827 and NCI-H358. The compound activity was also tested on human lung fibroblast cell line MRC-5. A two-dimensional in vitro viability assay was performed on the MRC-5 cell line to see if tested compounds are cytotoxic on normal cell lines in low concentrations. […] 7.1.
(§3) Test compounds were synthesized by a research group at the Department of Organic Chemistry, Faculty of Chemical Engineering and Technology, University of Zagreb. […] Compounds were diluted 1:3. We transferred 500 nL (for 2D cell culture) or 400 nL (for 3D cell culture) of the compound from a mother plate to test plate by using Mosquito (TTP labtech). DMSO percentage in test concentrations was 0.5–1.0%. Starting concentration of the test compounds and standard compound doxorubicin was 50 µM (2D cell culture) or 100 µM (3D cell culture).
(§4) Cells were grown in 96-well Perfecta 3D hanging drop plates 5000 cell/well for 4 days until spheres were formed (and checked under the microscope). After sphere formation cells were treated with compounds followed by 72 h incubation. Cell viability assay was performed according to the manufacturer’s instructions, using CellTiter GLO 3D for 3D cell culture (Promega); cell incubation was 5 min on the shaker followed by 25 min incubation in the dark. Plates were read using PE EnVision luminescence.
(§5) Proliferation assay was performed using Cell Proliferation ELISA, BrdU (Sigma, St. Louis, MO, USA). Briefly, 48 h hours after compound addition, 10 µM of BrdU was added to each well and incubated for the following 24 h. After incubation, a single cell suspension was made for 3D cell culture in the new 96-well plate. Plates were centrifuged and supernatants were removed from each plate (for 2D and 3D cell culture) followed by 60 min incubation at 60 °C. The rest of the proliferation assay was performed according to the manufacturer’s instructions.
(§6) Calculation of IC50 data, curves and QC analysis was performed by using Excel tools and GraphPadPrism software (La Jolla, CA, USA), v. […] QC criteria parameters (Z’, S:B, R2, HillSlope) were checked for every IC50 curve.

[6] = test system: NCI-H358; assay: as above; assay type: cell-based, human; conditions: Homo sapiens, NCI-H358, 3D, n = 2, read-out: Proliferation Assay IC50 ± SD
Description: as §2, §3, §4, §5, §6

[7] = test system: HCC827; assay: as above; assay type: cell-based, human; conditions: Homo sapiens, HCC827, 3D, BrdU, n = 2, read-out: Proliferation Assay IC50 ± SD
Description: as §2, §3, §4, §5, §6

[8] = test system: poly(dAdT)2; assay: Thermal melting experiments; assay type: binding; conditions: r = 0.3, pH 7.0, sodium cacodylate buffer I = 0.05 mol dm^−3; error ±0.5 °C
Excerpt: (§7) The thermal stability of helices is usually affected by the non-covalent binding of small molecules to double-stranded nucleic acids. We determined the ΔTm value (the difference between the Tm value of free polynucleotide and a complex with a small molecule) for complexes of selected compounds with ctDNA and an alternating polynucleotide, poly(dAdT)2. […] Because of this, we determined ΔTm value with non-alternating AT-DNA, poly dA-poly dT as well.

[9] = test system: poly dA-poly dT; assay: Thermal melting experiments; assay type: binding; conditions: r = 0.3, pH 7.0, sodium cacodylate buffer I = 0.05 mol dm^−3; error ±0.5 °C
Excerpt: as §7

[10] = test system: A549; assay: Cytotoxicity (viability) assay, 3D hanging drop cell culture; conditions: Homo sapiens, A549, 72 h, read-out: Cytotoxicity Assay IC50 ± SD; A549 3D
Description: as §2, §3, §4, §6

[11] = test system: NCI-H358; assay: as above; conditions: Homo sapiens, NCI-H358, 72 h, read-out: Cytotoxicity Assay IC50 ± SD; NCI-H358 3D
Description: as §2, §3, §4, §6

[12] = test system: HCC827; assay: as above; conditions: Homo sapiens, HCC827, 72 h, read-out: Cytotoxicity Assay IC50 ± SD; HCC827 3D
Description: as §2, §3, §4, §6

[13] = Solubility in water (stock solutions)
[14] = test system: ctDNA; assay: Thermal melting experiments; assay type: binding, calf; conditions: r = [compound]/[polynucleotide] = 0.3, pH 7.0, sodium cacodylate buffer I = 0.05 mol dm^−3; error ±0.5 °C
Excerpt: as §7

[15] = MTS cytotoxicity assay, 2D cell culture, normal lung fibroblasts; conditions: human, MRC-5 normal lung fibroblasts, 2D culture
Description: as §2, §3
(§8) Cells were grown in 96-well cell star polystyrene plates. We seeded 10,000 cells/well in wells 4 h prior to the treatment with different compounds concentrations and incubated for 72 h. A cell viability assay was performed according to the manufacturer’s instructions, using CellTiter 96 aqueous solution, MTS kit (Promega, Madison, WI, USA). After 0.5–2 h of cell incubation with MTS in 2D cell culture, the plates were read using PE EnVision absorbance at 490 nm.
as §6

[16] = test system: A549; assay: BrdU proliferation assay, 2D cell culture; assay type: cell-based, human; conditions: Homo sapiens, A549, 2D, BrdU, n = 2, read-out: Proliferation Assay IC50 ± SD
Description: as §2, §3, §8, §5, §6

[17] = test system: NCI-H358; assay: BrdU proliferation assay, 2D cell culture; assay type: cell-based, human; conditions: Homo sapiens, NCI-H358, 2D, n = 2, read-out: Proliferation Assay IC50 ± SD
Description: as §2, §3, §8, §5, §6

[18] = test system: HCC827; assay: BrdU proliferation assay, 2D cell culture; assay type: cell-based, human; conditions: Homo sapiens, HCC827, 2D, BrdU, n = 2, read-out: Proliferation Assay IC50 ± SD
Description: as §2, §3, §8, §5, §6

[19] = test system: A549; assay: MTS cytotoxicity assay, 2D cell culture; conditions: Homo sapiens, A549, 72 h, read-out: Cytotoxicity Assay IC50 ± SD; A549 2D, 72 h, MTS; n = 2
Description: as §2, §3, §8, §6

[20] = test system: NCI-H358; assay: MTS cytotoxicity assay, 2D cell culture; conditions: Homo sapiens, NCI-H358, 72 h, read-out: Cytotoxicity Assay IC50 ± SD; NCI-H358 2D
Description: as §2, §3, §8, §6

[21] = test system: HCC827; assay: MTS cytotoxicity assay, 2D cell culture; conditions: Homo sapiens, HCC827, 72 h, read-out: Cytotoxicity Assay IC50 ± SD; HCC827 2D
Description: as §2, §3, §8, §6

[22] = test system: E. coli ATCC 25922; assay: Broth microdilution testing (CLSI); assay type: cell-based, Escherichia coli; conditions: Escherichia coli, ATCC25922; broth microdilution, 16–24h at 37 °C; read-out: MIC E. coli ATCC 25922
Description: as §1

SMILES	MIC [3]	MIC [4]	IC50 [5]	IC50 [6]	IC50 [7]	IC50 [10]	IC50 [11]	IC50 [12]	melting point	IC50 at 72 h [15]	IC50 [16]	IC50 [17]	IC50 [18]	IC50 [19]	IC50 [20]	IC50 [21]	MIC [22]	also measured
CC(C)NC(=N)c1ccc2nc(-c3ccc(-c4ccc([N+](=O)[O-])cc4)o3)sc2c1																		ΔTm [1]: 5.5 °C; ΔTm [2]: 4.8 °C
Cl.O=[N+]([O-])c1ccc(-c2ccc(-c3nc4ccc(C5=NCCN5)cc4s3)o2)cc1 [Compound 6, 6-(4,5-Dihydro-1H-imidazol-2-yl)-2-[5-(4-nitrophenyl)furan-2-yl]benzothiazole hydrochloride]	> 100 µM	1.6 µM	5.52 ± 0.1 µM	2.36 ± 1.17 µM	7.63 ± 5 µM	4.01 ± 0.95 µM	1.73 ± 0.01 µM	7.02 ± 3.25 µM	287 to 292 °C	3.11 ± 0.26 µM	2.27 ± 0.13 µM	1.1 ± 0.001 µM	16.7 ± 9.39 µM	2.12 ± 0.21 µM	0.85 ± 0.05 µM	5.13 ± 0.97 µM	> 100 µM	ΔTm [1]: 5.6 °C; ΔTm poly (dAdT)2 [8]: 3.6 °C; ΔTm Poly dA-poly dT [9]: 5.6 °C; solubility [13]: 1720 µM; ΔTm [2]: 3.6 °C; ΔTm ctDNA [14]: 3.2 °C
N#Cc1ccc2nc(-c3ccc(-c4ccc(Cl)cc4)o3)sc2c1 [Compound 7, 2-[5-(4-Chlorophenyl)furan-2-yl]-6-cyanobenzothiazole]	> 100 µM	> 100 µM	> 100 µM	> 100 µM	> 100 µM	> 100 µM	> 100 µM	> 100 µM	235 to 237 °C	> 50 µM	> 50 µM	> 50 µM	> 50 µM	> 50 µM	> 50 µM	> 50 µM	> 100 µM	
N#Cc1ccc2[nH]c(-c3ccc(-c4ccc([N+](=O)[O-])cc4)o3)nc2c1 [Compound 10, 5(6)-Cyano-2-[5-(4-nitrophenyl)furan-2-yl]benzimidazole]	> 100 µM	> 100 µM	> 100 µM	> 100 µM	> 100 µM	> 100 µM	> 100 µM	> 100 µM	242 to 246 °C	> 50 µM	> 50 µM	> 50 µM	> 50 µM	> 50 µM	> 50 µM	> 50 µM	> 100 µM	
N#Cc1ccc2[nH]c(-c3ccc(-c4ccc(Cl)cc4)o3)nc2c1 [Compound 13, 2-[5-(4-Chlorophenyl)furan-2-yl]-5(6)-cyanobenzimidazole]	> 100 µM	> 100 µM	> 100 µM	> 100 µM	> 100 µM	> 100 µM	> 100 µM	> 100 µM	242 to 246 °C	> 50 µM	22.7 ± 0.54 µM	15.7 ± 0.86 µM	> 50 µM	> 50 µM	> 50 µM	> 50 µM	> 100 µM	
N#C/C(=C\c1ccc(-c2ccc([N+](=O)[O-])cc2)o1)c1nc2ccccc2[nH]1 [Compound 17, (E)-2-(Benzimidazol-2-yl)-3-[5-(4-nitrophenyl)furan-2-yl]acrylonitrile]	> 100 µM	> 100 µM	> 100 µM	> 100 µM	> 100 µM	> 100 µM	> 100 µM	> 100 µM	273 to 274 °C	> 50 µM	> 50 µM	> 50 µM	> 50 µM	> 50 µM	> 50 µM	> 50 µM	> 100 µM	
N#C/C(=C\c1ccc(-c2ccc([N+](=O)[O-])cc2)o1)c1nc2ccccc2s1 [Compound 19, (E)-2-(Benzothiazol-2-yl)-3-[5-(4-nitrophenyl)furan-2-yl]acrylonitrile]	> 100 µM	> 100 µM	> 100 µM	> 100 µM	> 100 µM	> 100 µM	> 100 µM	> 100 µM	240 to 242 °C	> 50 µM	> 50 µM	> 50 µM	> 50 µM	> 50 µM	> 50 µM	> 50 µM	> 100 µM	
N#C/C(=C\c1ccc(-c2ccc(Cl)cc2)o1)c1nc2ccccc2[nH]1 [Compound 20, (E)-2-(Benzimidazol-2-yl)-3-[5-(4-chlorophenyl)furan-2-yl]acrylonitrile]	> 100 µM	> 100 µM	> 100 µM	> 100 µM	0.16 ± 0.11 µM	> 100 µM	> 100 µM	9.48 ± 1.15 µM	292 to 294 °C	> 50 µM	43.9 ± 54.3 µM	14.4 ± 6.46 µM	> 50 µM	> 50 µM	31.1 ± 4.42 µM	43.5 ± 8.17 µM	> 100 µM	
